What was measured:
Assay type in all cases: biochemical
[1] = molecular target: T1, Jnk1 (Homo sapiens, UniProt P45983); assay: AlphaScreen kinase assay, Jnk1; settings: read-out: IC50, activity toward kinase Jnk1
T1 construct: purchased Upstate Biotechnology

[2] = molecular target: T2, B-Raf V600E (Homo sapiens, UniProt P15056, V600E); assay: AlphaScreen kinase assay, B-Raf V600E; settings: read-out: IC50, activity toward kinase B-Raf V600E
T2 construct: P4254. pFastBacBD-CDC37 BRAF D437-K722-X, V600E; His6 with pFastBac HT leader (TEV site) (N); made in house; host or cells: Sf9 (baculovirus; chaperone CDC37 co-expressed)

[3] = molecular target: T3, Ret (Homo sapiens, UniProt P07949); assay: AlphaScreen kinase assay, Ret; settings: read-out: IC50, activity toward kinase Ret
T3 construct: P1378.pET-SF BI-PTP RET H661-R1012 HIS; made in house
T3 sequence (P07949 with tags, fused parts or gaps): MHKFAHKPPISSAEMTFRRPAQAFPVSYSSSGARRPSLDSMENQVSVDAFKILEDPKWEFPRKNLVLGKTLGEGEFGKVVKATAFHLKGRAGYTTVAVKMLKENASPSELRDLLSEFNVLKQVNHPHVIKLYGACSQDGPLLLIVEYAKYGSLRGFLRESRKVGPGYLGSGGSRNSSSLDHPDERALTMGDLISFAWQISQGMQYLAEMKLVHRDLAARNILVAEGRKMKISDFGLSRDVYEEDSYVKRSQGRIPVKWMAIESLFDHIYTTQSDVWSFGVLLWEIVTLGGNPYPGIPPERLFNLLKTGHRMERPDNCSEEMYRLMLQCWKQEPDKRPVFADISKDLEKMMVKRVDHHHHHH

[4] = molecular target: T4, Pyk2 (Homo sapiens, UniProt Q14289); assay: AlphaScreen kinase assay, Pyk2; settings: read-out: IC50, activity toward kinase Pyk2
T4 construct: purchased Upstate Biotechnology

[5] = molecular target: T5, B-Raf (Homo sapiens, UniProt P15056); assay: AlphaScreen kinase assay, B-Raf; settings: read-out: IC50, activity toward kinase B-Raf
T5 construct: purchased Upstate Biotechnology

[6] = molecular target: Gsk3β (Homo sapiens, UniProt P49841); assay: AlphaScreen kinase assay, Gsk3β; settings: read-out: IC50, activity toward kinase Gsk3β
Source text: AlphaScreen assay was used to screen additional kinases. The assay is similarly dependent on the phosphorylation of a peptide substrate. In this assay, an antibody that recognizes phosphorylated substrate is bound to an acceptor bead. The peptide substrate is attached to biotin, which binds to a donor head that contains streptavidin. Thus phosphorylated substrate is bound by antibody and streptavidin, bringing the donor and acceptor heads into close proximity when kinase is not inhibited. The donor produces singlet oxygen which results in emission from the acceptor when they are in close proximity. Conversely, when kinase is inhibited, the donor and acceptor beads are not associated and the emission from the acceptor is reduced.
AlphaScreen assays were done using compounds dissolved in DMSO to a concentration of 20 mM. The compounds were diluted accordingly to the desired final concentrations in each sample well, using 1:3 serial dilution for a total of 8 concentration points.

[7] = molecular target: T6, c-Raf-1 (Homo sapiens, UniProt P04049); assay: AlphaScreen kinase assay, c-Raf-1; settings: read-out: IC50, activity toward kinase c-Raf-1
T6 construct: purchased Upstate Biotechnology

[8] = molecular target: MAP4K4 (Homo sapiens, UniProt O95819); assay: AlphaScreen kinase assay, MAP4K4; settings: read-out: IC50, activity toward kinase MAP4K4
[9] = molecular target: T7, FGFR1 (Homo sapiens, UniProt P11362, C488A/C584S); assay: AlphaScreen kinase assay, FGFR1; settings: read-out: IC50, activity toward kinase FGFR
T7 construct: P1351.pET N6 BI-PTP FGFR A458-E765-X C488A, C584S; made in house; host or cells: E. coli (PTP1B co-expressed)

[10] = molecular target: T8, Met (Homo sapiens, UniProt P08581); assay: AlphaScreen kinase assay, Met; settings: read-out: IC50, activity toward kinase Met
T8 construct: P1818.pETN6 BI-PTP MET G1056-G1364-X WT; His6 (N); made in house; host or cells: E. coli (PTP1B co-expressed)
How it was run: (§1)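 Stock 20 mM compound in DMSO, diluted 1:3 serially to 8 final concentrations. Kinase phosphorylates biotinylated peptide; donor (streptavidin) and acceptor (anti-phospho antibody) beads then associate. Reduced acceptor emission indicates inhibition.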

[11] = molecular target: T9, Btk (Homo sapiens, UniProt Q06187); assay: Z'-Lyte FRET kinase assay (Invitrogen), Btk; settings: read-out: IC50, activity toward kinase Btk
T9 construct: purchased Invitrogen (assay run by Invitrogen)

[12] = molecular target: T10, Src (Homo sapiens, UniProt P12931); assay: AlphaScreen kinase assay, Src; settings: read-out: IC50, activity toward kinase Src
T10 construct: P1144. pET-N6 BI-PTP SRC V86-L536-X; made in house

[13] = molecular target: T11, Kit (Homo sapiens, UniProt P10721); assay: AlphaScreen kinase assay, Kit; settings: read-out: IC50, activity toward kinase Kit
T11 construct: P1332.N6 BI PTP KIT M552-K948-X COD; His6 (N); made in house; host or cells: E. coli (PTP1B co-expressed)

[14] = molecular target: T12, Jnk3 (Homo sapiens, UniProt P53779); assay: AlphaScreen kinase assay, Jnk3; settings: read-out: IC50, activity toward kinase Jnk3
T12 construct: purchased Upstate Biotechnology

[15] = molecular target: T13, Fms (Homo sapiens, UniProt P07333); assay: AlphaScreen kinase assay, Fms; settings: read-out: IC50, activity toward kinase Fms
T13 construct: purchased Upstate Biotechnology

[16] = molecular target: T14, Kdr (Homo sapiens, UniProt P35968); assay: Z'-Lyte FRET kinase assay (Invitrogen), Kdr; settings: read-out: IC50, activity toward kinase Kdr
T14 construct: purchased Invitrogen (assay run by Invitrogen)

[17] = molecular target: T15, Stk6 (Homo sapiens, UniProt O14965); assay: Z'-Lyte FRET kinase assay (Invitrogen), Stk6; settings: read-out: IC50, activity toward kinase Stk6
T15 construct: purchased Invitrogen (Carlsbad, Calif.), screening service
T15 sequence (O14965 1-403): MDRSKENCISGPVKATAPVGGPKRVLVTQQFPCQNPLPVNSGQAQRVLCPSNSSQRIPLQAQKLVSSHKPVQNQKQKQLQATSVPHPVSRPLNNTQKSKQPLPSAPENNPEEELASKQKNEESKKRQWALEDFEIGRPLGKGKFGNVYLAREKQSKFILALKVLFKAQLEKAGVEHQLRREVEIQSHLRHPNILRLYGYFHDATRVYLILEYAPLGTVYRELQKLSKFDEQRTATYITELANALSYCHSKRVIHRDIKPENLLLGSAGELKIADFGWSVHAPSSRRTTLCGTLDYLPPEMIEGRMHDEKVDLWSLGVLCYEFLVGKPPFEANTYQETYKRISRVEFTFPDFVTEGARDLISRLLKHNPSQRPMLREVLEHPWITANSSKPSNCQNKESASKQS

[18] = molecular target: T16, Abl (Homo sapiens, UniProt P00519); assay: AlphaScreen kinase assay, Abl; settings: read-out: activity toward kinase Abl, IC50
T16 construct: P1121. pET-SPEC BI-PTP Abl G227-V515-X; His6 (N); made in house; host or cells: E. coli (PTP1B co-expressed)
T16 sequence (P00519 with tags, fused parts or gaps): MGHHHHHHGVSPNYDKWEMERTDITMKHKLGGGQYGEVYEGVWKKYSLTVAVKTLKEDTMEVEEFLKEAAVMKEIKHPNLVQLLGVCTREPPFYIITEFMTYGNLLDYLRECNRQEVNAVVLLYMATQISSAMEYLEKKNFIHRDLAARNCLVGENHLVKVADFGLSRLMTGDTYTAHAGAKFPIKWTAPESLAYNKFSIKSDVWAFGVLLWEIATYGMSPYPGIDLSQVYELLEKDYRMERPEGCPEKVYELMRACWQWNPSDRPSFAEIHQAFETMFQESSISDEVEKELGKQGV
How it was run: as §1

[19] = molecular target: T17, Flt1 (Homo sapiens, UniProt P17948); assay: AlphaScreen kinase assay, Flt1; settings: read-out: IC50, activity toward kinase Flt1
T17 construct: P1826.pETN6 BI-PTP FLT1 M799-D1165-X WT; His6 (N); made in house; host or cells: E. coli (PTP1B co-expressed)
T17 sequence (P17948 with tags, fused parts or gaps): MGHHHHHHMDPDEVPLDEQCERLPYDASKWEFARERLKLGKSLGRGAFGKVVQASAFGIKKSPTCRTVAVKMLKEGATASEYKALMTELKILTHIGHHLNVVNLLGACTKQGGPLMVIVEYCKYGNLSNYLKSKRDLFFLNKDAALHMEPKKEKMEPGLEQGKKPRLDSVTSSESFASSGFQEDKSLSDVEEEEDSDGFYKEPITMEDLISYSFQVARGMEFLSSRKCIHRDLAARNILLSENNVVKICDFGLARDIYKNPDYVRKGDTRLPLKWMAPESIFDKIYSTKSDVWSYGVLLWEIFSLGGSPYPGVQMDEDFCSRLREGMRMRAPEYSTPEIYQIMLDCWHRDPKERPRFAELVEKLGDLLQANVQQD

Measured: IC50

Sequence of Gsk3β (P49841 whole entry): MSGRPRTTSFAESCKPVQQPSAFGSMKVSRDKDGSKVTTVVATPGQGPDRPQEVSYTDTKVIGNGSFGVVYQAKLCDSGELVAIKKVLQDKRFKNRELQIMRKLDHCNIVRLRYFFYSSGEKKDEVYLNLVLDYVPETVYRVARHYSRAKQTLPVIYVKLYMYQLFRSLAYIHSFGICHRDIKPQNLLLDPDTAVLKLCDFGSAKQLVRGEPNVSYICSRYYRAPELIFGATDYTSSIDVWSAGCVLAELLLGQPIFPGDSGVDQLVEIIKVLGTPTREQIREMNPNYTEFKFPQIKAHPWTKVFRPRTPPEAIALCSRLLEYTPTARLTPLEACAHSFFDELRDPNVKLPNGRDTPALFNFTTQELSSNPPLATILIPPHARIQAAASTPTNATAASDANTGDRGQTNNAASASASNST
T11 sequence (P10721 with tags, fused parts or gaps): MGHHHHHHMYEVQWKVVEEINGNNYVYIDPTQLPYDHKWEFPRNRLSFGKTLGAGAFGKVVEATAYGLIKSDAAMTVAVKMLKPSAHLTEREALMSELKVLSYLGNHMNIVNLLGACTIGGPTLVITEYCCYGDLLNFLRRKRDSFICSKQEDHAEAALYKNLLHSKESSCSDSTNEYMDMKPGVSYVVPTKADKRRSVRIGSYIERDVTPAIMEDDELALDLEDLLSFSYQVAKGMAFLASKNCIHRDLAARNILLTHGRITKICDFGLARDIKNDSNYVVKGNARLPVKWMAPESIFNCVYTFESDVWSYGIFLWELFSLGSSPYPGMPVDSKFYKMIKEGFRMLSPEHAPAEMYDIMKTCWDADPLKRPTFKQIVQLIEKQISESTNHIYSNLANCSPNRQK
Sequence of MAP4K4 (O95819 whole entry): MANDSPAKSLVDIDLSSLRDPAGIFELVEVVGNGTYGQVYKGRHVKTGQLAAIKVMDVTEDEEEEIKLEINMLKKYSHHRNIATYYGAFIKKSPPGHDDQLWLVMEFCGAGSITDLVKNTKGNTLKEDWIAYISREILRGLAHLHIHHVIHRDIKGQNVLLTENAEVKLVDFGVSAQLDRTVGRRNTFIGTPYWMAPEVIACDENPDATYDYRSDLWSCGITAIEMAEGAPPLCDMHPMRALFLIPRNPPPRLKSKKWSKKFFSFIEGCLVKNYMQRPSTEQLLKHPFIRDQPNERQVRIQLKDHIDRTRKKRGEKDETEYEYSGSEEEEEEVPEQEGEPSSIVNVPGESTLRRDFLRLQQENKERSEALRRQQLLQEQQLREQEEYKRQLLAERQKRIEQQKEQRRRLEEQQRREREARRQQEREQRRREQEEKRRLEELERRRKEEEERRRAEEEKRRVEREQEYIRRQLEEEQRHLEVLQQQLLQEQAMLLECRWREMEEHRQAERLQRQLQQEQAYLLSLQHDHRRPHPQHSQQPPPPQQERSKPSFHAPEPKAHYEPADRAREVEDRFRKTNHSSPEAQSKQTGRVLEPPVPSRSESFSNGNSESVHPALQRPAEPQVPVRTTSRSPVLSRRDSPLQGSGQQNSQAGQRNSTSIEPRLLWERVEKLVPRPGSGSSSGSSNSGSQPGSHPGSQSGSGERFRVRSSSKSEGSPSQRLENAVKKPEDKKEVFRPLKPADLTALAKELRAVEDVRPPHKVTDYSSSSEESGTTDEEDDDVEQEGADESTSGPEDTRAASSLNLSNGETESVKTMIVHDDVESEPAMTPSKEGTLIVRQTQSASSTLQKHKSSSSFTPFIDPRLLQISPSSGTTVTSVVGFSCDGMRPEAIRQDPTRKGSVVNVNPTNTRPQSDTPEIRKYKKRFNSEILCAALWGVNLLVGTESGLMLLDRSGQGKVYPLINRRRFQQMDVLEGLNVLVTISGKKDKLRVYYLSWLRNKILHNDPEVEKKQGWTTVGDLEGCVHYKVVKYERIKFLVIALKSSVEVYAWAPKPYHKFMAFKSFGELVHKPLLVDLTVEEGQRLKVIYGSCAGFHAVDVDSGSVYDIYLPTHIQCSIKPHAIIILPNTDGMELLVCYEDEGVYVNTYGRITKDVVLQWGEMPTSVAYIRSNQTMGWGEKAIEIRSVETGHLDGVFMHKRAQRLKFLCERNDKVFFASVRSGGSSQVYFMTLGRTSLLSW
T7 sequence (P11362 458-765 C488A/C584S): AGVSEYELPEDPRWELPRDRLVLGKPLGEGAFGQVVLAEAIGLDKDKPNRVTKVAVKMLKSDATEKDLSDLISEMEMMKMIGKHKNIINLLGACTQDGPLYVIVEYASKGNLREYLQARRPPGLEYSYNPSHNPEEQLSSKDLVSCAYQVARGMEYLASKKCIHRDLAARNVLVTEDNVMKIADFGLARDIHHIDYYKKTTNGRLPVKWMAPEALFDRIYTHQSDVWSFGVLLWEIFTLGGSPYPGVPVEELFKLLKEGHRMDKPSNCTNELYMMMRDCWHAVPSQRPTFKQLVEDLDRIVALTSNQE
T5 sequence (P15056 whole entry): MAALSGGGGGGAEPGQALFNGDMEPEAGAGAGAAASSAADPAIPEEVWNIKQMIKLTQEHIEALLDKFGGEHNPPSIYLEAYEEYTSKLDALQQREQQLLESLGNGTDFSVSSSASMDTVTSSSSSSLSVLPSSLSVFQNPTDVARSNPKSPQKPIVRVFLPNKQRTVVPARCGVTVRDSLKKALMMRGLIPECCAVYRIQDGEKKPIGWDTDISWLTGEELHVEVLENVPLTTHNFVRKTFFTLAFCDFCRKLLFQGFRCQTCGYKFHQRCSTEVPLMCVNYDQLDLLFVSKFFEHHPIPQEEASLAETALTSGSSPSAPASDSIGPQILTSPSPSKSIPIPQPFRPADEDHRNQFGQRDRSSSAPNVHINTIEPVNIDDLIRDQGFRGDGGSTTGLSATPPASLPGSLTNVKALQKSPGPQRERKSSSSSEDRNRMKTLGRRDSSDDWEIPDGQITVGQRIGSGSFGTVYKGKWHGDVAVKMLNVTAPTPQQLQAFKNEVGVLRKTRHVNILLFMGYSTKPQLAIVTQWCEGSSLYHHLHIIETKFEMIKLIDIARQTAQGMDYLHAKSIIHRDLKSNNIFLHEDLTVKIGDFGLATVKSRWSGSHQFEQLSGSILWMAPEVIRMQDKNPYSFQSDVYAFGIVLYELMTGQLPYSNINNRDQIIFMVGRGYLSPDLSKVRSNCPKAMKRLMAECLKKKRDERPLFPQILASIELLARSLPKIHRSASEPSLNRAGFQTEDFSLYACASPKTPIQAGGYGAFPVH
T2 sequence (P15056 with tags, fused parts or gaps V600E): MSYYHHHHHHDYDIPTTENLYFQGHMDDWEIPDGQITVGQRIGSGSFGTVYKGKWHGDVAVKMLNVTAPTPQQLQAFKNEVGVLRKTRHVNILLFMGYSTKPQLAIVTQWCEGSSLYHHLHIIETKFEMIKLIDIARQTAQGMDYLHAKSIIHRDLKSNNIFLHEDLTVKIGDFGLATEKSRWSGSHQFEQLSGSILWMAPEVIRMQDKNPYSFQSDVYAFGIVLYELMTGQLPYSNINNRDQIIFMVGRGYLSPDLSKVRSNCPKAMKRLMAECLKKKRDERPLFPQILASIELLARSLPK
T6 sequence (P04049 whole entry): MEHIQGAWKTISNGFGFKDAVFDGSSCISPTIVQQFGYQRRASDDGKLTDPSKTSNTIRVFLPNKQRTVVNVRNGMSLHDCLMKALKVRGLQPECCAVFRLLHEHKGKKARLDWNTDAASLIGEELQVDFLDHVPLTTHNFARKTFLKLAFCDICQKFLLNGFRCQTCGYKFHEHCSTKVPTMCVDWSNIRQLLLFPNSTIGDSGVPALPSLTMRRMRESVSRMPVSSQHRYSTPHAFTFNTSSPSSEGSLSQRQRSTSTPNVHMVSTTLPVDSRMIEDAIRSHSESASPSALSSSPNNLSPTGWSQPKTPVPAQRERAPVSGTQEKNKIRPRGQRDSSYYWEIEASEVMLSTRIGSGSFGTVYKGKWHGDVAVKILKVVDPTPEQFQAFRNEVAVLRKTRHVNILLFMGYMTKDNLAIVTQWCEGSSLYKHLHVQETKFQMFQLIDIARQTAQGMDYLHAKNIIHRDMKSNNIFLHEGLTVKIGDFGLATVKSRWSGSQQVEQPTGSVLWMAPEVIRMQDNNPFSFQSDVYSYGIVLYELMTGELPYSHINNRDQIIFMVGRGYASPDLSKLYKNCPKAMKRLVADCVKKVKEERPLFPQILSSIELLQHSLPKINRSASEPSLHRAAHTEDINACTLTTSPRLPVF
T13 sequence (P07333 20-972): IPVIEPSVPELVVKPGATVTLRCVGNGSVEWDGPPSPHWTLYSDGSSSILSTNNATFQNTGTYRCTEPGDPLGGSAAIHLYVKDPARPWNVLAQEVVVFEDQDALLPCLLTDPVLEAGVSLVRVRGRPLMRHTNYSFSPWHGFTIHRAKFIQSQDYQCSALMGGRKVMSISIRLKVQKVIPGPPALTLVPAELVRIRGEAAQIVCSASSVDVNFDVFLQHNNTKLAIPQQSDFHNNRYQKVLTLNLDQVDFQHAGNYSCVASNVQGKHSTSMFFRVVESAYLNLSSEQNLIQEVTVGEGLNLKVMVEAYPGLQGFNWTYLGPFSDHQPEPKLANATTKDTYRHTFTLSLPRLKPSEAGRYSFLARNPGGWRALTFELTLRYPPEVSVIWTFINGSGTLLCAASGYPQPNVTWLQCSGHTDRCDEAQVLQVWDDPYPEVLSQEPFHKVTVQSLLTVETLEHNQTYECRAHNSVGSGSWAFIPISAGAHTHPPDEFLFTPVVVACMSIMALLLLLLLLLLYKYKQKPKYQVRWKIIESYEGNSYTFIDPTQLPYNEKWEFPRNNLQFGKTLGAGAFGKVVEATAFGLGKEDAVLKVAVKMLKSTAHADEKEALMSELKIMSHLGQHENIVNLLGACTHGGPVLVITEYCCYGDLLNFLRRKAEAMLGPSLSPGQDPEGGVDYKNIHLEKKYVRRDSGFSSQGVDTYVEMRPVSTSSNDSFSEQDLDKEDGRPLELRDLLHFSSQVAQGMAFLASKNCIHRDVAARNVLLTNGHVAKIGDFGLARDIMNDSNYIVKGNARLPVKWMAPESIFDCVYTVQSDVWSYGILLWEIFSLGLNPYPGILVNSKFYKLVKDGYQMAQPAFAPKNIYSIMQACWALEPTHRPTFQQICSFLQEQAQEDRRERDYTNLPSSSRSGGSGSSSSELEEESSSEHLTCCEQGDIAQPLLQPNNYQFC

CCS(=O)(=O)Nc1ccc(F)c(C(=O)c2c[nH]c3ncc(-c4cccnc4)cc23)c1F [Compound P-0728, N-[2,4-difluoro-3-(5-pyridin-3-yl-1H-pyrrolo[2,3-b]pyridine-3-carbonyl)-phenyl]-ethanesulfonamide]
≤ 10 µM: [1] | [2] | [3] | [4] | [5] | [6] | [7] | [8] | [9]

Nc1ccc(F)c(C(=O)c2c[nH]c3ncc(-c4cccnc4)cc23)c1F [Compound P-0763, (3-amino-2,6-difluoro-phenyl)-(5-pyridin-3-yl-1H-pyrrolo[2,3-b]pyridin-3-yl)-methanone]
not listed: [4] | [8] | [16] | [17] | [18] | [19]
≤ 10 µM: all other assays above

CCCS(=O)(=O)Nc1ccc(F)c(C(=O)c2c[nH]c3ncc(OCC)cc23)c1F [Compound P-1252, Propane-1-sulfonic acid [3-(5-ethoxy-1H-pyrrolo[2,3-b]pyridine-3-carbonyl)-2,4-difluoro-phenyl]-amide]
≤ 10 µM: [2] | [5] | [12] | [6] | [13] | [8] | [9] | [15]

O=C(c1c(F)ccc(NS(=O)(=O)c2ccccc2)c1F)c1c[nH]c2ncccc12 [Compound P-0913, N-[2,4-Difluoro-3-(1H-pyrrolo[2,3-b]pyridine-3-carbonyl)-phenyl]-benzenesulfonamide]
≤ 10 µM: [2] | [5] | [6] | [7] | [13] | [8] | [9] | [15]

S=C(NCc1ccccn1)NCc1c[nH]c2ncccc12 [Compound P-0169]
≤ 10 µM: [6] | [16] | [17] | [18]

CN(C)c1cccc(Nc2ccc3cc[nH]c3n2)c1 [Compound P-1372, N,N-Dimethyl-N′-(1H-pyrrolo[2,3-b]pyridin-6-yl)-benzene-1,3-diamine]
≤ 10 µM: [4] | [6] | [19] | [13] | [14] | [8] | [15]

Reference: patent US8415469B2, “Compounds and methods for kinase modulation, and indications therefor” (Plexxikon Inc., priority 2005, dated 2013)
